pIC50: −log10 of the molar value.
Assays:
[1] = test system: NCI-H358 cells; assay: In vitro cell activity, NCI-H358 cells, CCK-8; format: cell-based; conditions: NCI-H358, 168 h, human non-small cell lung cancer cells, 7 days
Description: Test compounds: the compounds of the present invention prepared in the above example. Each compound was formulated into a 10 mM stock solution with DMSO, and finally diluted into 8 concentrations for detection, with the final concentrations being 33333.00 nM, 6666.60 nM, 1333.32 nM, 266.66 nM, 53.33 nM, 10.67 nM, 2.13 nM, and 0.43 nM for experiments in Z-138 cells.
2.1.3 NCI-H358 cell thawing: The cryovial for NCI-H358 cells was taken out from a liquid nitrogen tank and placed in a 37° C. water bath, and shaken gently for thawing as soon as possible. After thawing, the cryovial was taken out, and sterilized with an alcohol cotton ball, after which the cap was unscrewed. The cell fluid was drawn and injected into a centrifuge tube. 1 mL of 1640 medium containing 10% FBS was added, and mixed uniformly. The tube was placed in a centrifuge, and centrifuged at 1000 rpm for 5 min. Afterwards, the supernatant was discarded, and complete medium was added. The mixture was pipetted repeatedly until the cells were completely dispersed and resuspended. The mixture was inoculated in a petri dish at an appropriate concentration, and cultured in a CO2 incubator at 37° C., 5% CO2, and 95% humidified air.
2.2.3 NCI-H358 cell culture and passage: The cells grew to about 80-90%. The medium (1640 medium+10% FBS+1% penicillin-streptomycin+1 mM sodium pyruvate) was transferred to a 15 mL centrifuge tube, and centrifuged at 1000 rpm for 5 min. The supernatant was removed. The cells were resuspended in complete medium, and inoculated in a petri dish at the desired density. The dish was placed in a CO2 incubator at 37° C., 5% CO2, and 95% humid air. The culture medium was changed every 2-3 days or the passage was carried out, depending on the cell growth.
After passage, NCI-H358 cells were resuspended in complete medium at the corresponding density, 1000 cells/well, and inoculated in a 96-well culture plate. The wells at the outer circumference were filled with 200 μL PBS to prevent the culture conditions of the inside plate wells from being too different from each other due to the faster evaporation of medium at the edge. The leftmost column of the 60 inner wells were blank wells, which were not added with cells, but filled with equal volume of PBS. The remaining 54 wells were subjected to cell plating with a multichannel pipette, to each well was added 100 μL. […]
The first column of PBS was used as a blank control well, and 100 μL of CCK-8 was added synchronously thereto. […] The optimal detection time was determined according to the shade of color developed by CCK-8 (the optimal OD value for the DMSO group was about 1.0). […] The microplate reader software was opened, the detection parameters were adjusted, and the absorbance at 450 nm (OD value) was detected. […]

[2] = test system: ex vivo heart; assay: Ex vivo heart experiments, QT interval

CC(=O)N1CCC(Nc2cc(C(=O)NC[C@H](O)CN3CCc4ccccc4C3)ncn2)CC1 [Compound A, (S)-6-((1-Acetylpiperidin-4-yl)amino)-N-(3-(3,4-dihydroisoquinolin-2(1H)-yl)-2-hydroxypropyl)pyrimidine-4-carboxamide]
pIC50 [1]: 7.14

CC(=O)N1CCC(Nc2ccc3c(c2)C(=O)N(C[C@H](O)CN2CCc4ccccc4C2)CC32CC2)CC1 [Compound B, (R)-7′-((1-Acetylpiperidin-4-yl)amino)-2′-(3-(3,4-dihydroisoquinolin-2(1H)-yl)-2-hydroxypropyl)-2′,3′-dihydro-1′H-spiro[cyclopropane-1,4′-isoquinolin]-1′-one, reference compound]
pIC50 [1]: 7.81 | effect on the QT interval [2]: significant prolongation of the QT interval

CC(=O)N1CCC(Nc2cc3c(cn2)C2(CC2)CN(C[C@H](O)CN2CCc4ccccc4C2)C3=O)CC1 [Example 1, (R)-7′-((1-acetylpiperidin-4-yl)amino)-2′-(3-(3,4-dihydroisoquinolin-2(1H)-yl)-2-hydroxypropyl)-2′,3′-dihydro-1′H-spiro[cyclopropane-1,4′-[2,6]naphthyridin]-1′-one]
pIC50 [1]: 8.05 | effect on the QT interval [2]: no effect on the QT interval

CC(=O)N1CC2(CC(Nc3cc4c(cn3)C3(CC3)CN(C[C@H](O)CN3CCc5ccccc5C3)C4=O)C2)C1 [Example 2, (R)-7′-((2-acetyl-2-azaspiro[3.3]hept-6-yl)amino)-2′-(3-(3,4-dihydroisoquinolin-2(1H)-yl)-2-hydroxypropyl)-2′,3′-dihydro-1′H-spiro[cyclopropane-1,4′-[2,6]naphthyridin]-1-one]
pIC50 [1]: 8.30 | effect on the QT interval [2]: no effect on the QT interval

Source: patent publication US20240116918A1, “SUBSTITUTED TRICYCLIC COMPOUND AS PRMT5 INHIBITOR AND USE THEREOF” (NANJING SANHOME PHARMACEUTICAL CO., LTD., priority 2019, published 2024)
